Experimental data published in US20050208496A1, “Methods of testing for bronchial asthma or chronic obstructive pulmonary disease” (Genox Research, Inc., priority 2002, published 2005).

Test system: mouse counterpart genes
Experiment: Mouse GeneChip (MG-U74A to MG-U74C) analysis of lung and trachea of the OVA antigen-exposed bronchial hypersensitivity model, S-Sal group versus S-OVA group
Format: in vivo
Details: S-Sal group vs S-OVA group

ovalbumin [OVA antigen, ovalbumin antigen used for sensitization and inhalation to induce bronchial hypersensitivity in mice]
Fold Change, interferon gamma inducible protein 30 (mouse probe 97444_at) (3rd, chip A, P/A call A): 1.8 | Fold Change, matrix metalloproteinase 7 (mouse probe 92917_at) (3rd, chip A, P/A call A): 1.6 | Fold Change, matrix metalloproteinase 7 (mouse probe 162318_r_at) (3rd, chip A, P/A call A): 1.3 | Fold Change, met proto-oncogene (mouse probe 100309_at) (3rd, chip A, P/A call A): 1.9 | Fold Change, phosphotidylinositol transfer protein, beta (mouse probe 102697_at) (3rd, chip A, P/A call A): 0.5 | Fold Change, A kinase anchor protein 2 (mouse probe 101435_at) (3rd, chip A, P/A call P): 1 | Fold Change, DNA segment. Chr 16. ERATO Doi 269, expressed (mouse probe 97821_at) (3rd, chip A, P/A call P): 1 | Fold Change, DNA segment. Chr 16. ERATO Doi 269, expressed (mouse probe 97823_g_at) (3rd, chip A, P/A call P): 1.1 | Fold Change, a disintegrin and metalloprotease domain 8 (mouse probe 103024_at) (3rd, chip A, P/A call P): 4.6 | Fold Change, arachidonate 15-lipoxygenase (mouse probe 98758_at) (3rd, chip A, P/A call P): 8 | Fold Change, cholesterol 25-hydroxylase (mouse probe 104509_at) (3rd, chip A, P/A call P): 1.9 | Fold Change, claudin 4 (mouse probe 101410_at) (3rd, chip A, P/A call P): 1 | Fold Change, decay accelerating factor 1 (mouse probe 103617_at) (3rd, chip A, P/A call P): 1.3 | Fold Change, interferon-stimulated protein (20 kDa) (mouse probe 103432_at) (3rd, chip A, P/A call P): 1 | Fold Change, interleukin 1 receptor-like 1 (mouse probe 98500_at) (3rd, chip A, P/A call P): 2.4 | Fold Change, low density lipoprotein receptor-related protein associated protein 1 (mouse probe 100086_at) (3rd, chip A, P/A call P): 0.833 | Fold Change, low density lipoprotein receptor-related protein associated protein 1 (mouse probe 161988_f_at) (3rd, chip A, P/A call P): 1.1 | Fold Change, membrane-associated protein 17 (mouse probe 96935_at) (3rd, chip A, P/A call P): 1.1 | Fold Change, polycystic kidney disease 2 (mouse probe 100951_at) (3rd, chip A, P/A call P): 0.667 | Fold Change, histocompatibility 2, Q region locus 7 (mouse probe 98438_f_at) (3rd, chip A, P/A call P, counterpart of human probe 37420_i_at): 1.2 | Fold Change, histocompatibility 2, Q region locus 7 (mouse probe 98438_f_at) (3rd, chip A, P/A call P, counterpart of human probe 37421_f_at): 1.2 | Fold Change, A kinase (PRKA) anchor protein 10 (mouse probe 163162_at) (3rd, chip B, P/A call A): 0.526 | Fold Change, ESTs Putative Ortholog of ISG-54K gene (mouse probe 164273_at) (3rd, chip B, P/A call A): 1.5 | Fold Change, ESTs, Highly similar to AF116721 8 PRO0907 [H. sapiens] (mouse probe 114151_at) (3rd, chip B, P/A call A): 1.4 | Fold Change, decay accelerating factor 1 (mouse probe 164905_r_at) (3rd, chip B, P/A call A): 1.1 | Fold Change, interferon gamma inducible protein 30 (mouse probe 164423_at) (3rd, chip B, P/A call A): 4.1 | Fold Change, secreted end transmembrane 1 (mouse probe 115133_at) (3rd, chip B, P/A call A): 0.625 | Fold Change, viral hemorrhagic septicemia virus(VHSV) induced gene 1 (mouse probe 109385_at) (3rd, chip B, P/A call A): 0.286 | Fold Change, decay accelerating factor 1 (mouse probe 107626_at) (3rd, chip B, P/A call P): 1.9 | Fold Change, deleted in bladder cancer chromosome region candidate 1 (human) Putative Ortholog (mouse probe 166806_at) (3rd, chip C, P/A call P): 1 | Fold Change, interferon-induced protein with tetratricopeptide repeats 1 (mouse probe 168299_f_at) (3rd, chip C, P/A call P): 1.2 | Fold Change, 2′-5′ oligoadenylate synthetase 1A (mouse Probe ID 102717_at) (chip A, 1st): 1.6 | Fold Change, DnaJ (Hsp40) homolog, subfamily A, member 1 (mouse Probe ID 97261_at) (chip A, 1st): 0.476 | Fold Change, SAM domain and HD domain, 1 (mouse Probe ID 103080_at) (chip A, 1st): 1.3 | Fold Change, cadherin 6 (mouse Probe ID 101730_at) (chip A, 1st): 0.833 | Fold Change, cyclin D3 (mouse Probe ID 160545_at) (chip A, 1st): 0.625 | Fold Change, growth arrest and DNA-damage-inducible 45 gamma (mouse Probe ID 101979_at) (chip A, 1st): 2.3 | Fold Change, heparan sulfate (glucosamine) 3-)-sulfotransferase 1 (mouse Probe ID 102410_at) (chip A, 1st): 1.4 | Fold Change, hydroxysteroid (17-beta) dehydrogenase 2 (mouse Probe ID 101891_at) (chip A, 1st): 1.8 | Fold Change, intercellular adhesion molecule (mouse Probe ID 96752_at) (chip A, 1st): 1.3 | Fold Change, intercellular adhesion molecule (mouse Probe ID 1011414_at) (chip A, 1st): 1 | Fold Change, interferon-induced protein with tetratricopeptide repeats 1 (mouse Probe ID 100981_at) (chip A, 1st): 1.8 | Fold Change, interferon-stimulated protein (15 kDa) (mouse Probe ID 98822_at) (chip A, 1st): 4.3 | Fold Change, interleukin 13 receptor, alpha 2 (mouse Probe ID 95344_at) (chip A, 1st): 1.4 | Fold Change, nitric oxide synthase 2, inducible, macrophage (mouse Probe ID 104420_at) (chip A, 1st): 2.3 | Fold Change, osteoblast specific factor 2 (fasciclin I-like) (mouse Probe ID 92593_at) (chip A, 1st): 1.2 | Fold Change, proteosome (prosome, macropain) subunit, beta type 9 (mouse Probe ID 93085_at) (chip A, 1st): 2.1 | Fold Change, sialyltransferase 1 (beta-galactoside alpha-2,6-sialyltransferase) (mouse Probe ID 94431_at) (chip A, 1st): 0.385 | Fold Change, small inducible cytokine B subfamily (Cys-X-Cys), member 10 (mouse Probe ID 93858_at) (chip A, 1st): 1.3 | Fold Change, thioredoxin reductase 1 (mouse Probe ID 99985_at) (chip A, 1st): 1.2 | Fold Change, thioredoxin reductase 1 (mouse Probe ID 161043_r_at) (chip A, 1st): 1.4 | Fold Change, thrombospondin 1 (mouse Probe ID 160469_at) (chip A, 1st): 1.1 | Fold Change, transglutaminase 2, C polypeptide (mouse Probe ID 93352_at) (chip A, 1st): 1 | Fold Change, 2′-5′ oligoadenylate synthetase 1A (mouse Probe ID 102717_at) (chip A, 2nd): 1.7 | Fold Change, SAM domain and HD domain, 1 (mouse Probe ID 103080_at) (chip A, 2nd): 1.3 | Fold Change, cadherin 6 (mouse Probe ID 101730_at) (chip A, 2nd): 1.1 | Fold Change, cyclin D3 (mouse Probe ID 160545_at) (chip A, 2nd): 1.1 | Fold Change, fructose bisphosphatase 1 (mouse Probe ID 96918_at) (chip A, 2nd): 2.3 | Fold Change, growth arrest and DNA-damage-inducible 45 gamma (mouse Probe ID 101979_at) (chip A, 2nd): 5.4 | Fold Change, heparan sulfate (glucosamine) 3-)-sulfotransferase 1 (mouse Probe ID 102410_at) (chip A, 2nd): 0.4 | Fold Change, hydroxysteroid (17-beta) dehydrogenase 2 (mouse Probe ID 101891_at) (chip A, 2nd): 0.667 | Fold Change, intercellular adhesion molecule (mouse Probe ID 96752_at) (chip A, 2nd): 1.2 | Fold Change, intercellular adhesion molecule (mouse Probe ID 1011414_at) (chip A, 2nd): 0.357 | Fold Change, interferon-induced protein with tetratricopeptide repeats 1 (mouse Probe ID 100981_at) (chip A, 2nd): 1.9 | Fold Change, interferon-stimulated protein (15 kDa) (mouse Probe ID 98822_at) (chip A, 2nd): 4.2 | Fold Change, interleukin 13 receptor, alpha 2 (mouse Probe ID 95344_at) (chip A, 2nd): 1.5 | Fold Change, nitric oxide synthase 2, inducible, macrophage (mouse Probe ID 104420_at) (chip A, 2nd): 1.1 | Fold Change, proteosome (prosome, macropain) subunit, beta type 9 (mouse Probe ID 93085_at) (chip A, 2nd): 1.6 | Fold Change, sialyltransferase 1 (beta-galactoside alpha-2,6-sialyltransferase) (mouse Probe ID 94431_at) (chip A, 2nd): 1.3 | Fold Change, small inducible cytokine B subfamily (Cys-X-Cys), member 10 (mouse Probe ID 93858_at) (chip A, 2nd): 1.7 | Fold Change, thioredoxin reductase 1 (mouse Probe ID 161043_r_at) (chip A, 2nd): 1.8 | Fold Change, thioredoxin reductase 1 (mouse Probe ID 161284_r_at) (chip A, 2nd): 1.3 | Fold Change, thrombospondin 1 (mouse Probe ID 160469_at) (chip A, 2nd): 1.7 | Fold Change, transforming growth factor, beta 2 (mouse Probe ID 93300_at) (chip A, 2nd): 0.833 | Fold Change, transglutaminase 2, C polypeptide (mouse Probe ID 93352_at) (chip A, 2nd): 1.3 | Fold Change, 2′-5′ oligoadenylate synthetase 1A (mouse Probe ID 102717_at) (chip A, 3rd): 2.2 | Fold Change, DnaJ (Hsp40) homolog, subfamily A, member 1 (mouse Probe ID 97261_at) (chip A, 3rd): 0.833 | Fold Change, cyclin D3 (mouse Probe ID 160545_at) (chip A, 3rd): 0.833 | Fold Change, fructose bisphosphatase 1 (mouse Probe ID 96918_at) (chip A, 3rd): 1.7 | Fold Change, growth arrest and DNA-damage-inducible 45 gamma (mouse Probe ID 101979_at) (chip A, 3rd): 1.9 | Fold Change, heparan sulfate (glucosamine) 3-)-sulfotransferase 1 (mouse Probe ID 102410_at) (chip A, 3rd): 1 | Fold Change, intercellular adhesion molecule (mouse Probe ID 1011414_at) (chip A, 3rd): 1 | Fold Change, interferon-induced protein with tetratricopeptide repeats 1 (mouse Probe ID 100981_at) (chip A, 3rd): 1.6 | Fold Change, interferon-stimulated protein (15 kDa) (mouse Probe ID 98822_at) (chip A, 3rd): 2.2 | Fold Change, interleukin 13 receptor, alpha 2 (mouse Probe ID 95344_at) (chip A, 3rd): 1.2 | Fold Change, osteoblast specific factor 2 (fasciclin I-like) (mouse Probe ID 92593_at) (chip A, 3rd): 1 | Fold Change, proteosome (prosome, macropain) subunit, beta type 9 (mouse Probe ID 93085_at) (chip A, 3rd): 1.1 | Fold Change, sialyltransferase 1 (beta-galactoside alpha-2,6-sialyltransferase) (mouse Probe ID 94431_at) (chip A, 3rd): 1.6 | Fold Change, small inducible cytokine B subfamily (Cys-X-Cys), member 10 (mouse Probe ID 93858_at) (chip A, 3rd): 2 | Fold Change, thioredoxin reductase 1 (mouse Probe ID 99985_at) (chip A, 3rd): 1 | Fold Change, thioredoxin reductase 1 (mouse Probe ID 161043_r_at) (chip A, 3rd): 0.588 | Fold Change, thrombospondin 1 (mouse Probe ID 160469_at) (chip A, 3rd): 1.5 | Fold Change, transforming growth factor, beta 2 (mouse Probe ID 93300_at) (chip A, 3rd): 0.5 | Fold Change, transglutaminase 2, C polypeptide (mouse Probe ID 93352_at) (chip A, 3rd): 0.833 | Fold Change, RIKEN cDNA 2610017M01 gene (mouse Probe ID 105606_at) (chip B, 1st): 1.5 | Fold Change, RIKEN cDNA 2610017M01 gene (mouse Probe ID 163053_at) (chip B, 1st): 1
